Among the data in patent publication US20240148821A1, “PHARMACEUTICAL USE OF CYCLIC PEPTIDE COMPOUND” (CHUGAI SEIYAKU KABUSHIKI KAISHA, priority 2021, published 2024) are IC50 values, retold here.

Each structure is given as a SMILES string. Numbered stars: 1 amine (or outer) side, 2 acyl side, 3 side chain; on linkers, the order of the positions; unused ones are H or OH. Bridge positions count the residues as written; N and C are the ends. Square brackets hold non-standard residues; d marks the D form. Peptide text beside a SMILES is read from it. * marks the point of attachment. hPhe(3-Cl-4-CF3) = N[C@@H](CCc1ccc(C(F)(F)F)c(Cl)c1)C(=O)O; NMeAbu(4,4,4-F3) = CN[C@@H](CC(F)(F)F)C(=O)O; NMePhe(4-Me) = CN[C@@H](Cc1ccc(C)cc1)C(=O)O; X48 = CN([C@@H](CCc1cccnc1)C(=O)[*:2])[*:1]; NMePhe(4-F) = CN[C@@H](Cc1ccc(F)cc1)C(=O)O; NMePhe(2-Me) = CN[C@@H](Cc1ccccc1C)C(=O)O; Abu(4,4,4-F3) = N[C@@H](CC(F)(F)F)C(=O)O; NMeAla(cPent) = CN[C@@H](CC1CCCC1)C(=O)O; NMeGly(cPent) = CN[C@H](C(=O)O)C1CCCC1; NMe3Pal = CN[C@@H](Cc1cccnc1)C(=O)O; NMeCha = CN[C@@H](CC1CCCCC1)C(=O)O; Pro(4-oxo) = O=C1CN[C@H](C(=O)O)C1; NMeChg = CN[C@H](C(=O)O)C1CCCCC1; NMeF = CN[C@@H](Cc1ccccc1)C(=O)O; NMeI = CC[C@H](C)[C@H](NC)C(=O)O; Gly(cPr) = N[C@H](C(=O)O)C1CC1; NMeD = CN[C@@H](CC(=O)O)C(=O)O; NMeL = CN[C@@H](CC(C)C)C(=O)O; NMeV = CN[C@H](C(=O)O)C(C)C; d(β3hA) = C[C@@H](N)CC(=O)O; NMeS = CN[C@@H](CO)C(=O)O; Morpholide = C1CN(*)CCO1; NMeA = CN[C@@H](C)C(=O)O; Piperidide = C1CCN(*)CC1; Pyrrolidide = C1CCN(*)C1; dNMeA = CN[C@H](C)C(=O)O; Ac5c = NC1(C(=O)O)CCCC1; Aze = O=C(O)[C@@H]1CCN1; Ac4c = NC1(C(=O)O)CCC1; Cyclopropyl = C1CC1*; Sar = CNCC(=O)O; Propyl = CCC* Bounds are passed on as bounds.

The test system of this experiment is Human pancreatic cancer cell line AsPC-1 (G12D mutation Kras). Description: AsPC-1 cell growth inhibition (AsPC-1 CGI). The experiment is classed as cell-based. The conditions noted are these: read-out: AsPC-1 cell growth inhibition, 50% growth inhibitory concentration (IC50 value); 96 hours, CellTiter-Glo, values classified in ranges.
Procedure: Test compounds were serially dilated with dimethyl sulfoxide, and 200 nL was then dispensed to a U-bottom 96-well plate using Labcyte Echo. […] The cell suspension was dispensed to a. plate containing a test compound at 100 μL per well and incubated at 37° C. in a 5% carbon dioxide gas incubator. 96 hours later, 80 μL of CellTiter-Glo (Promega) was added to each well and fluorescence was measured.
Take `CC[C@H](C)[C@@H]1NC(=O)[C@H](CC(C)C)N(C)C(=O)C[C@@H](C(=O)N2CCCCC2)N(C)C(=O)[C@H](C(C)C)N(C)C(=O)C2(CCCC2)NC(=O)[C@@H]2CC(=O)CN2C(=O)[C@H](CCc2ccc(C(F)(F)F)c(Cl)c2)NC(=O)CN(C)C(=O)[C@H](CC2CCCCC2)N(C)C(=O)[C@@H]2CCN2C(=O)[C@H](C)N(C)C1=O` [Compound 1819] ([NMeL]I[NMeA][Aze][NMeCha][Sar][hPhe(3-Cl-4-CF3)][Pro(4-oxo)][Ac5c][NMeV][NMeD]-Piperidide; lactam N-11): the IC50 was more than 500 nM.
With `CC[C@H](C)[C@@H]1NC(=O)[C@H](C)N(C)C(=O)C[C@@H](C(=O)N2CCCC2)N(C)C(=O)[C@H](C2CCCCC2)N(C)C(=O)C2(CCCC2)NC(=O)[C@H](Cc2cccnc2)N(C)C(=O)[C@H](CCc2ccc(C(F)(F)F)c(Cl)c2)NC(=O)CN(C)C(=O)[C@H](CC2CCCCC2)N(C)C(=O)CN(C)C(=O)CN(C)C1=O` [Compound 1834] ([NMeA]I[Sar][Sar][NMeCha][Sar][hPhe(3-Cl-4-CF3)][NMe3Pal][Ac5c][NMeChg][NMeD]-Pyrrolidide; lactam N-11) the figure was more than 500 nM.
For `CC[C@H](C)[C@@H]1NC(=O)[C@H](CC(C)C)N(C)C(=O)C[C@@H](C(=O)N(C)C)N(C)C(=O)[C@H]([C@@H](C)CC)N(C)C(=O)C2(CCCC2)NC(=O)[C@@H]2CCCN2C(=O)[C@H](CCc2ccc(C(F)(F)F)c(Cl)c2)NC(=O)CN(C)C(=O)[C@H](Cc2ccc(C)cc2)N(C)C(=O)CN(C)C(=O)CN(C)C1=O` [Compound 1836] ([NMeL]I[Sar][Sar][NMePhe(4-Me)][Sar][hPhe(3-Cl-4-CF3)]P[Ac5c][NMeI][NMeD]-NMe2; lactam N-11) the value was not above 20 nM; for `CC[C@H](C)[C@@H]1NC(=O)[C@H](CC(C)C)N(C)C(=O)C[C@@H](C(=O)N2CCCCC2)N(C)C(=O)[C@H](C2CCCCC2)N(C)C(=O)C2(CCCC2)NC(=O)[C@@H]2CCCN2C(=O)[C@H](CCc2ccc(C(F)(F)F)c(Cl)c2)NC(=O)CN(C)C(=O)[C@H](CC(F)(F)F)N(C)C(=O)CN(C)C(=O)CN(C)C1=O` [Compound 1841] ([NMeL]I[Sar][Sar][NMeAbu(4,4,4-F3)][Sar][hPhe(3-Cl-4-CF3)]P[Ac5c][NMeChg][NMeD]-Piperidide; lactam N-11), more than 500 nM; for `CC[C@H](C)[C@@H]1NC(=O)[C@H](C)N(C)C(=O)C[C@@H](C(=O)N2CCCCC2)N(C)C(=O)[C@H](C(C)C)N(C)C(=O)C2(CCCC2)NC(=O)[C@@H]2CCCN2C(=O)[C@H](CCc2ccc(C(F)(F)F)c(Cl)c2)NC(=O)[C@@H](C)N(C)C(=O)[C@H](Cc2ccccc2)N(C)C(=O)CN(C)C(=O)CN(C)C1=O` [Compound 1844] ([NMeA]I[Sar][Sar][NMeF][dNMeA][hPhe(3-Cl-4-CF3)]P[Ac5c][NMeV][NMeD]-Piperidide; lactam N-11), more than 500 nM.
`CC[C@H](C)[C@@H]1NC(=O)[C@H](CC(C)C)N(C)C(=O)C[C@@H](C(=O)N2CCOCC2)N(C)C(=O)[C@H](C(C)C)N(C)C(=O)C2(CCCC2)NC(=O)[C@@H]2CCCN2C(=O)[C@H](CCc2ccc(C(F)(F)F)c(Cl)c2)NC(=O)CN(C)C(=O)[C@H](CC2CCCC2)N(C)C(=O)CN(C)C(=O)CN(C)C1=O` [Compound 1848] ([NMeL]I[Sar][Sar][NMeAla(cPent)][Sar][hPhe(3-Cl-4-CF3)]P[Ac5c][NMeV][NMeD]-Morpholide; lactam N-11): the IC50 is more than 500 nM.
Take `CC[C@H](C)[C@@H]1NC(=O)[C@H](C)N(C)C(=O)C[C@@H](C(=O)N2CCCCC2)N(C)C(=O)[C@H](C(C)C)N(C)C(=O)C2(CCCC2)NC(=O)[C@@H]2CCCN2C(=O)[C@H](CCc2ccc(C(F)(F)F)c(Cl)c2)NC(=O)[C@@H](C)N(C)C(=O)[C@H](Cc2ccc(F)cc2)N(C)C(=O)[C@@H]2CCCN2C(=O)CN(C)C1=O` [Compound 1853] ([NMeA]I[Sar]P[NMePhe(4-F)][dNMeA][hPhe(3-Cl-4-CF3)]P[Ac5c][NMeV][NMeD]-Piperidide; lactam N-11): the IC50 is more than 500 nM.
With `CCCOC[C@H]1C(=O)N(C)[C@H](C(=O)N2CCCCC2)CC(=O)N(C)[C@@H](CC(C)C)C(=O)N[C@@H]([C@@H](C)CC)C(=O)N(C)[C@@H](C)C(=O)N2CC[C@H]2C(=O)N(C)[C@@H](CC2CCCCC2)C(=O)N(C)CC(=O)N[C@@H](CCc2ccc(C(F)(F)F)c(Cl)c2)C(=O)N2CCC[C@H]2C(=O)NC2(CCCC2)C(=O)N1C` [Compound 1855] ([NMeL]I[NMeA][Aze][NMeCha][Sar][hPhe(3-Cl-4-CF3)]P[Ac5c][NMeS](Propyl)[NMeD]-Piperidide; lactam N-11) the figure was more than 500 nM; with `CC[C@H](C)[C@@H]1NC(=O)[C@H](CC(C)C)N(C)C(=O)C[C@@H](C)NC(=O)[C@H](C2CCCCC2)N(C)C(=O)C2(CCCC2)NC(=O)[C@@H]2CCCN2C(=O)[C@H](CCc2ccc(C(F)(F)F)c(Cl)c2)NC(=O)CN(C)C(=O)[C@H](Cc2ccc(C)cc2)N(C)C(=O)CN(C)C(=O)CN(C)C1=O` [Compound 1856] (cyclo([Ac5c][NMeChg][d(β3hA)][NMeL]I[Sar][Sar][NMePhe(4-Me)][Sar][hPhe(3-Cl-4-CF3)]P)), more than 500 nM; with `CC[C@H](C)[C@@H]1NC(=O)[C@H](CC(C)C)N(C)C(=O)C[C@@H](C(=O)N2CCCCC2)N(C)C(=O)[C@H](COC2CC2)N(C)C(=O)C2(CCCC2)NC(=O)[C@@H]2CCCN2C(=O)[C@H](CCc2ccc(C(F)(F)F)c(Cl)c2)NC(=O)CN(C)C(=O)[C@H](CC2CCCCC2)N(C)C(=O)CN(C)C(=O)CN(C)C1=O` [Compound 1857] ([NMeL]I[Sar][Sar][NMeCha][Sar][hPhe(3-Cl-4-CF3)]P[Ac5c][NMeS](Cyclopropyl)[NMeD]-Piperidide; lactam N-11), more than 500 nM.
Turning to `CC[C@H](C)[C@@H]1NC(=O)[C@H](CC(C)C)N(C)C(=O)C[C@@H](C(=O)N(C)C)N(C)C(=O)[C@H]([C@@H](C)CC)N(C)C(=O)C2(CCCC2)NC(=O)[C@@H]2CCCN2C(=O)[C@H](CCc2ccc(C(F)(F)F)c(Cl)c2)NC(=O)CN(C)C(=O)[C@H](CC2CCCCC2)N(C)C(=O)[C@@H]2CCN2C(=O)[C@H](C)N(C)C1=O` [Compound 1858] ([NMeL]I[NMeA][Aze][NMeCha][Sar][hPhe(3-Cl-4-CF3)]P[Ac5c][NMeI][NMeD]-NMe2; lactam N-11), the IC50 is not above 20 nM.
As to `CC(C)C[C@H]1C(=O)N[C@@H](C2CC2)C(=O)N(C)CC(=O)N(C)CC(=O)N(C)[C@@H](CC2CCCCC2)C(=O)N(C)CC(=O)N[C@@H](CCc2ccc(C(F)(F)F)c(Cl)c2)C(=O)N2CCC[C@H]2C(=O)NC2(CCCC2)C(=O)N(C)[C@@H](C2CCCCC2)C(=O)N(C)[C@H](C(=O)N2CCCCC2)CC(=O)N1C` [Compound 1862] ([NMeL][Gly(cPr)][Sar][Sar][NMeCha][Sar][hPhe(3-Cl-4-CF3)]P[Ac5c][NMeChg][NMeD]-Piperidide; lactam N-11), the IC50 is more than 500 nM.
With `CC(C)C[C@H]1C(=O)N[C@@H](CC(F)(F)F)C(=O)N(C)[C@@H](C)C(=O)N2CC[C@H]2C(=O)N(C)[C@@H](CC2CCCCC2)C(=O)N(C)CC(=O)N[C@@H](CCc2ccc(C(F)(F)F)c(Cl)c2)C(=O)N2CCC[C@H]2C(=O)NC2(CCCC2)C(=O)N(C)[C@@H](C(C)C)C(=O)N(C)[C@H](C(=O)N2CCCCC2)CC(=O)N1C` [Compound 1864] ([NMeL][Abu(4,4,4-F3)][NMeA][Aze][NMeCha][Sar][hPhe(3-Cl-4-CF3)]P[Ac5c][NMeV][NMeD]-Piperidide; lactam N-11) the figure was more than 500 nM; with `CC[C@H](C)[C@@H]1NC(=O)[C@H](CC(C)C)N(C)C(=O)C[C@@H](C(=O)N(C)C)N(C)C(=O)[C@H]([C@@H](C)CC)N(C)C(=O)C2(CCCC2)NC(=O)[C@@H]2CCCN2C(=O)[C@H](CCc2ccc(C(F)(F)F)c(Cl)c2)NC(=O)CN(C)C(=O)[C@H](CC2CCCCC2)N(C)C(=O)CN(C)C(=O)CN(C)C1=O` [Compound 1865] ([NMeL]I[Sar][Sar][NMeCha][Sar][hPhe(3-Cl-4-CF3)]P[Ac5c][NMeI][NMeD]-NMe2; lactam N-11), not above 20 nM.
With `CC[C@H](C)[C@@H]1NC(=O)[C@H](CC(C)C)N(C)C(=O)C[C@@H](C(=O)N2CCOCC2)N(C)C(=O)[C@H](C2CCCCC2)N(C)C(=O)C2(CCC2)NC(=O)[C@@H]2CCCN2C(=O)[C@H](CCc2ccc(C(F)(F)F)c(Cl)c2)NC(=O)CN(C)C(=O)[C@H](CC2CCCCC2)N(C)C(=O)CN(C)C(=O)CN(C)C1=O` [Compound 1875] ([NMeL]I[Sar][Sar][NMeCha][Sar][hPhe(3-Cl-4-CF3)]P[Ac4c][NMeChg][NMeD]-Morpholide; lactam N-11) the figure was not above 20 nM; with `CC[C@H](C)[C@@H]1NC(=O)[C@H](CC(C)C)N(C)C(=O)C[C@@H](C(=O)N(C)C)N(C)C(=O)[C@H](C2CCCC2)N(C)C(=O)C2(CCCC2)NC(=O)[C@H](Cc2ccccc2C)N(C)C(=O)[C@H](CCc2ccc(C(F)(F)F)c(Cl)c2)NC(=O)CN(C)C(=O)[C@H](CC2CCCCC2)N(C)C(=O)[C@@H]2CCN2C(=O)[C@H](C)N(C)C1=O` [Compound 1880] ([NMeL]I[NMeA][Aze][NMeCha][Sar][hPhe(3-Cl-4-CF3)][NMePhe(2-Me)][Ac5c][NMeGly(cPent)][NMeD]-NMe2; lactam N-11), more than 500 nM; with `CC[C@H](C)[C@@H]1NC(=O)[C@H](CC(C)C)N(C)C(=O)C[C@@H](C(=O)N(C)C)N(C)C(=O)[C@H]([C@@H](C)CC)N(C)C(=O)C2(CCCC2)NC(=O)[C@H](CCc2cccnc2)N(C)C(=O)[C@H](CCc2ccc(C(F)(F)F)c(Cl)c2)NC(=O)CN(C)C(=O)[C@H](Cc2ccc(C)cc2)N(C)C(=O)[C@@H]2CCN2C(=O)[C@H](C)N(C)C1=O` [Compound 1886] ([NMeL]I[NMeA][Aze][NMePhe(4-Me)][Sar][hPhe(3-Cl-4-CF3)][X48][Ac5c][NMeI][NMeD]-NMe2; lactam N-11), not above 20 nM.
`CC[C@H](C)[C@@H]1NC(=O)[C@H](CC(C)C)N(C)C(=O)C[C@@H](C(=O)N2CCCC2)N(C)C(=O)[C@H](C2CCCCC2)N(C)C(=O)C2(CCC2)NC(=O)[C@@H]2CCCN2C(=O)[C@H](CCc2ccc(C(F)(F)F)c(Cl)c2)NC(=O)CN(C)C(=O)[C@H](CC2CCCCC2)N(C)C(=O)CN(C)C(=O)CN(C)C1=O` [Compound 1894] ([NMeL]I[Sar][Sar][NMeCha][Sar][hPhe(3-Cl-4-CF3)]P[Ac4c][NMeChg][NMeD]-Pyrrolidide; lactam N-11): the IC50 is not above 20 nM.
